Source: US10351586B2, “Cytidine derivative dimers and applications thereof” (CHANGZHOU FANGYUAN PHARMACEUTICAL CO., LTD, priority 2014, dated 2019)

System: HCT-116 human colon cancer cells
Experiment: Colony formation inhibition test on HCT-116 human colon cancer cells
Assay type: cell-based
Conditions: for Number of cell clones on HCT-116, mean / inhibition at 0.05 µM / inhibition at 0.15 µM / inhibition at 0.45 µM: 72 h treatment, then 7-10 days; for inhibition at 0.05 µM / inhibition at 0.15 µM / inhibition at 0.45 µM / IC50: Homo sapiens; for inhibition at 0.05 µM / inhibition at 0.15 µM / inhibition at 0.45 µM: HCT-116, read-out: % inhibition (colony formation inhibition rate); for IC50: HCT-116 cells, dose-response 50, 150, 450 nM, read-out: IC50 value (colony formation inhibition, FIG. 7)
Procedure: 1. The colony formation inhibition test was used to evaluate the effect of four exemplary candidate compounds (D1, D2, D3, and D4) having concentrations of 50 nM, 150 nM and 450 nM on inhibiting cell proliferation of HCT-116 human colon cancer cells line.
2. Experiment material includes cell lines. HCT-116 human colon cancer cell line was purchased from the Chinese Academy of Sciences Shanghai Cell Resource Center, Cat # TCHu 99.
3. Reagent preparation includes HCT-116 human colon cancer cell culture medium, e.g., Dulbecco's Modified Eagle's medium (DMEM) medium with 10% fetal bovine serum (FBS). Compound solutions were prepared by dissolving and diluting the above synthesized compounds in dimethyl sulfoxide (DMSO) to a final concentration of about 100 μM.
Cell staining solution was prepared including 0.5% crystal violet solution prepared using absolute or anhydrous ethanol, and stored in dark. Before staining, the solution was mixed with phosphate buffered saline (PBS) buffer solution by volume ratio of 1:4 as the cell staining solution.
4. Cell culture: cells in logarithmic growth phase were collected, counted, and resuspended in complete culture medium. The cell concentration was adjusted to an appropriate concentration, 6-well culture plates were seeded, with about 300 cells and 1.8 mL of culture medium in each well. Cells were incubated for about 5 hours in an incubator at about 37° C. and about 100% relative humidity and under 5% CO2.
5. Cell colony formation inhibition test and data processing were performed including, for example, (a)-(i) as follows.
(a) Cells in logarithmic growth phase were collected and counted. The cells were re-suspended in culture medium containing 5% FBS, and counted. Six-well plates were seeded according to a rate of 300 cells per well. Cells were incubated for about 5 hours in an incubator at about 37° C. with 100% relative humidity and under 5% CO2.
(b) The compounds were diluted with culture medium (containing 5% FBS) to be concentrations of about 0.5 μM, 1.5 μM and 4.5 μM. Adding the compounds to cells in 200 μL per well, the final concentrations of the compounds were about 50 nM, 150 nM and 450 nM. Each concentration point was repeatedly tested for three times.
(c) Cells were incubated for about 72 hours in an incubator at 37° C. with 100% relative humidity and under 5% CO2. (d) The culture medium from the plates (the culture medium containing the compound(s) was aspirated. The plates were rinsed with Hank's Balance Salt Solution (HBSS) twice, and replaced with fresh culture medium (DMEM medium with 15% FBS).
(e) Cells were incubated for about 7-10 days in an incubator at about 37° C. and 100% relative humidity and under 5% CO2, until the formation of visible cloned plaques. (f) The culture medium was aspirated from the plates. The plates were rinsed twice with PBS solution. (g) The residual PBS was absorbed and removed, and ethanol was added at 1 mL per plate, fixing for 30 minutes.
(h) Ethanol was absorbed and removed, and cell staining solution was added, stained for 3 minutes. (i) The staining solution was aspirated. After rinsing three times with PBS, the cells were counted.
Data processing was performed. Cloning formation efficiency=[As/Ac]×100%; and colony formation inhibition rate=1−cloning formation efficiency, where As denotes number of cell colonies in compound-treated group (cells+compounds to be tested), and Ac denotes number of cell colonies in negative control (without treating with compound) (cells+1% DMSO).

Q: `CCCCOC(=O)Nc1ccn(C2OC(COC(=O)CCCC(=O)OC[C@H]3O[C@@H](n4ccc(NC(=O)OCCCC)nc4=O)C(F)(F)[C@@H]3OC(=O)OCCCC)C(OC(=O)OCCCC)C2(F)F)c(=O)n1` (stereo in doubt) [Compound D1, 1,5-di-[4-N-(n-butyloxycarbonyl)-3′-O-(n-butoxycarbonyl)-2′-deoxy-2′,2′-difluoro-cytidine]glutarate] was tested. Which “Number of cell clones on HCT-116, mean” value (50 nM) did it give?
A: 242

Q: And the “Number of cell clones on HCT-116, mean” value (150 nM)?
A: 188

Q: What about the “Number of cell clones on HCT-116, mean” value (450 nM) of the same molecule?
A: 52

Q: And the inhibition at 0.05 µM (50 nM)?
A: 3.58%

Q: And the inhibition at 0.15 µM (150 nM)?
A: 25.1%

Q: And the inhibition at 0.45 µM (450 nM)?
A: 79.3%

Q: And the IC50?
A: ~245 nM

Q: Which results are given for `CCCCOC(=O)Nc1ccn([C@H]2O[C@@H](COC(=O)CCC(=O)OC[C@H]3O[C@@H](n4ccc(NC(=O)OCCCC)nc4=O)C(F)(F)[C@@H]3O)[C@H](O)C2(F)F)c(=O)n1` (stereo in doubt) [Compound D2, 1,5-di-[4-N-(n-butoxycarbonyl)-2′-deoxy-2′,2′-difluoro-cytidine]glutarate]?
A: Number of cell clones on HCT-116, mean (50 nM): 243; Number of cell clones on HCT-116, mean (150 nM): 191; Number of cell clones on HCT-116, mean (450 nM): 36; inhibition at 0.05 µM (50 nM): 4.7%; inhibition at 0.15 µM (150 nM): 25.1%; inhibition at 0.45 µM (450 nM): 85.9%; IC50: ~227 nM

Q: For `CCCCOC(=O)Nc1ccn(C2OC(COC(=O)CCC(=O)OC[C@H]3O[C@@H](n4ccc(NC(=O)OCc5ccccc5)nc4=O)C(F)(F)[C@@H]3O)C(O)C2(F)F)c(=O)n1` (stereo in doubt) [Compound D4, 1-O-(4-N-(Benzyloxycarbonyl)-gemcitabine)-4-O-(4-N-(n-Butoxycarbonyl)-gemcitabine)-succinate], which “Number of cell clones on HCT-116, mean” value (50 nM) is on record?
A: 235

Q: What about the “Number of cell clones on HCT-116, mean” value (150 nM) of the same molecule?
A: 75

Q: What about the “Number of cell clones on HCT-116, mean” value (450 nM) of the same molecule?
A: 11

Q: What about the inhibition at 0.05 µM (50 nM) of the same molecule?
A: 8.2%

Q: And the inhibition at 0.15 µM (150 nM)?
A: 70.7%

Q: What about the inhibition at 0.45 µM (450 nM) of the same molecule?
A: 95.7%

Q: What about the IC50 of the same molecule?
A: ~112 nM

Q: `O=C(CCCC(=O)OC[C@H]1O[C@@H](n2ccc(NC(=O)OCc3ccccc3)nc2=O)C(F)(F)[C@@H]1O)OC[C@H]1O[C@@H](n2ccc(NC(=O)OCc3ccccc3)nc2=O)C(F)(F)[C@@H]1O` [Compound D3, 1,5-di-[4-N-(benzyloxycarbonyl)-2′-deoxy-2′,2′-difluoro-cytidine]glutarate] was tested. Which “Number of cell clones on HCT-116, mean” value (50 nM) did it give?
A: 237

Q: And the “Number of cell clones on HCT-116, mean” value (150 nM)?
A: 20

Q: What about the “Number of cell clones on HCT-116, mean” value (450 nM) of the same molecule?
A: 4

Q: And the inhibition at 0.05 µM (50 nM)?
A: 1.66%

Q: What about the inhibition at 0.15 µM (150 nM) of the same molecule?
A: 91.7%

Q: And the inhibition at 0.45 µM (450 nM)?
A: 98.3%

Q: And the IC50?
A: ~99.8 nM
